Measurements: article PMC11984924, “Dipeptidic Phosphonates: Potent Inhibitors of Pseudomonas aeruginosa Elastase B Showing Efficacy in a Murine Keratitis Model” (Advanced Science, 2025)

Key:
[1] = biological target: T1, hERG potassium channel (Homo sapiens, UniProt Q12809); assay: SafetyScreen44: hERG binding
T1 construct: Eurofins Cerep SA (CRO)
Description: (§1) Moreover, we explored the safety profile of frontrunner (R)‐30 in more detail in order to detect additional crucial off‐target interactions. For this purpose, we employed the SafetyScreen44 in vitro panel comprising selected binding, inhibition and uptake assays.^[ [35] ^] The panel is a specialized pharmacological profiling tool that tests compounds against 44 key molecular targets, aiming to identify potential safety risks early in drug discovery. […]
(§2) The off-target Safety Screen44TM was performed by the CRO Eurofins Cerep SA (Celle-
(§3) L'Evescault, France) according to their protocols.[13] […]
(§4) MMP-1 MMP-2 MMP-3 TACE (ADAM17)
(§5) Compound [% inhibition at [% inhibition at [% inhibition at [% inhibition at 100

[2] = biological target: T2, cyclooxygenase 1 (COX1) (Homo sapiens, UniProt P23219); assay: SafetyScreen44: COX1; type: biochemical
T2 construct: Eurofins Cerep SA (CRO)
T2 sequence (P23219 24-599): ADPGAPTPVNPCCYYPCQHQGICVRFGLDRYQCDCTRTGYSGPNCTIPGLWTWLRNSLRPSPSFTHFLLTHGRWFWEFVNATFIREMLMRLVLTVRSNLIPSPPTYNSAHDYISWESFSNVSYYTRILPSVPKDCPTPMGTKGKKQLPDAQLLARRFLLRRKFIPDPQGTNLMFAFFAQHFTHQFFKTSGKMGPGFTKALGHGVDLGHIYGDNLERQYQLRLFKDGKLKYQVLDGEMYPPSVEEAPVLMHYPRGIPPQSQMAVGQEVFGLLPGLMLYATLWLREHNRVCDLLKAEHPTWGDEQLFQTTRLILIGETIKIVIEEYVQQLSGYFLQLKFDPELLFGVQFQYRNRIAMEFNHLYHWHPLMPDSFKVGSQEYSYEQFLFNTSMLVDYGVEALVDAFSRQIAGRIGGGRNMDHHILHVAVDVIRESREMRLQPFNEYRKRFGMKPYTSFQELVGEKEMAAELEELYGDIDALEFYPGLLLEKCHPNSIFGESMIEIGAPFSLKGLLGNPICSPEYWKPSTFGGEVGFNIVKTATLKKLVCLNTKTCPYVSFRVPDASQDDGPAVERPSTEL
Description: as §1, §2, §3, §4, §5

[3] = biological target: T3, LasB (Pseudomonas aeruginosa, UniProt Q02RJ6); assay: KC/LasB co-incubation study (ELISA); type: biochemical; conditions: 100 µM (R)-30, 100 nM LasB, 10 min
T3 construct: made in house
T3 sequence (Q02RJ6 198-498): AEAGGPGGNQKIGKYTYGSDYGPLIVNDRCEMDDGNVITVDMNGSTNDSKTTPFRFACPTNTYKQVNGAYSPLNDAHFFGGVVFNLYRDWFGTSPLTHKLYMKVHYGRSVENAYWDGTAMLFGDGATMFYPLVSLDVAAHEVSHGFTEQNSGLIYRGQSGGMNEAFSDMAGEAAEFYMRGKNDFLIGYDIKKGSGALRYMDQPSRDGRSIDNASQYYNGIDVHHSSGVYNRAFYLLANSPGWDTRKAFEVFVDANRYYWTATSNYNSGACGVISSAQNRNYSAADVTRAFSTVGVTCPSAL
Method: Figure S15: MS-based quantification of (R)-30 levels in serum and eye homogenate. Concentrations were determined after single treatment ((R)-30 alone) or after combination with Meropenem.
To test whether KC might be a substrate for LasB, an ELISA was used to quantify KC levels after co-incubation with LasB. Briefly, 500 pg/ml of the recombinant murine KC standard (R&D part 840327) was incubated for 10 minutes in PBS supplemented with 1% BSA and 0.1% DMSO (vehicle control), LasB (100 nM), (R)-30 (100 µM), or a combination of both. Detection of KC and absorbance measurements were performed as described above (3.11).
(also on this page, place not known: Serum Eye homogenate 100 1000 concentrations Concentration [ng/mL] Meropenem + (R)-30 (R)-30 , 10 LasB (R)-30)
(1 picture or pasted object on this page, not shown here)

[4] = tested on: sodium channel; assay: SafetyScreen44: sodium channel binding; design: species or system human; conditions: 100 µM
Description: as §1, §2, §3, §4, §5

T1 sequence (Q12809 whole entry): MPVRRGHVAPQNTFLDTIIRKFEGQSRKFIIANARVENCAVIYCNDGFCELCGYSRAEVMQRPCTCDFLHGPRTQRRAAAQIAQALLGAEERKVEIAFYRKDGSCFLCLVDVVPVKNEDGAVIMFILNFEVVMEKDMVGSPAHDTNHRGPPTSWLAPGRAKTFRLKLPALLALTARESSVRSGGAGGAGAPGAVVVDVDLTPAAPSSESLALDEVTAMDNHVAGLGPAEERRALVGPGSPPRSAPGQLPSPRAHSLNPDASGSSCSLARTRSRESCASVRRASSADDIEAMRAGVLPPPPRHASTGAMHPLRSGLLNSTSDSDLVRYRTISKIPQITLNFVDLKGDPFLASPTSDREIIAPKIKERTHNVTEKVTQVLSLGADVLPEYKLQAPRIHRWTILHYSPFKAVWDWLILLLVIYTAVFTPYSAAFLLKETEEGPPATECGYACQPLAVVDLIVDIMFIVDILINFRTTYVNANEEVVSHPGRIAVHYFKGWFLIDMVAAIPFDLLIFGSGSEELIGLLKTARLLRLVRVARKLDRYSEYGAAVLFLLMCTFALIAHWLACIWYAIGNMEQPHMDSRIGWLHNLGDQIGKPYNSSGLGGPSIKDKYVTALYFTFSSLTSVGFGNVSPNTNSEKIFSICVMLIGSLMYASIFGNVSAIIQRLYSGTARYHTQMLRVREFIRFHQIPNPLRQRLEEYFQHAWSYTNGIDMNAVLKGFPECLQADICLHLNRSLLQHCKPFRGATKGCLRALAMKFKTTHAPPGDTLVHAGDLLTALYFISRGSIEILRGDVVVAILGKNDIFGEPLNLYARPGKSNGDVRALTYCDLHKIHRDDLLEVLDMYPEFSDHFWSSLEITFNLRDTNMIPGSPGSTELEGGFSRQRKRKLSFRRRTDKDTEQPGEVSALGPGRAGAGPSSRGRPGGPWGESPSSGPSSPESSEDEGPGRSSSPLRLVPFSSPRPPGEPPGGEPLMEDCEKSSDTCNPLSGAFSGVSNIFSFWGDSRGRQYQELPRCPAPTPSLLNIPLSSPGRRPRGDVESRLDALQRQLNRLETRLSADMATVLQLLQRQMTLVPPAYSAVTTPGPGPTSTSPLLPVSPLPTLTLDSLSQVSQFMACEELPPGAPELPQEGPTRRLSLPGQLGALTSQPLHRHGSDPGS

CC(=O)c1ccc(NC(=O)[C@@H](NC(=O)[C@@H](CC(C)C)P(=O)(O)O)C(C)C)cc1 [(R)‐30]
inhibition at 100 µM [1]: 79.4% | inhibition at 100 µM [2]: 81.5% | proteolytic activity of LasB on KC [3]: effectively blocked | sodium channel binding inhibition [4]: 91.1%
